From US20240116985A1, “STAPLED PEPTIDES AND METHODS THEREOF” (priority 2020, published 2024)
Like-named read-outs stand apart in the source and are kept apart here.

Assays:
[1] = target: T1, full-length beta-Catenin (Uniprot ID P35222) (Homo sapiens, UniProt P35222); assay: Fluorescence polarization IC50 (beta-catenin / 5FAM-TCF4 10-53 competition); type: binding
T1 construct: 10 nM full-length beta-Catenin (Uniprot ID P35222)
T1 sequence (P35222 1-781): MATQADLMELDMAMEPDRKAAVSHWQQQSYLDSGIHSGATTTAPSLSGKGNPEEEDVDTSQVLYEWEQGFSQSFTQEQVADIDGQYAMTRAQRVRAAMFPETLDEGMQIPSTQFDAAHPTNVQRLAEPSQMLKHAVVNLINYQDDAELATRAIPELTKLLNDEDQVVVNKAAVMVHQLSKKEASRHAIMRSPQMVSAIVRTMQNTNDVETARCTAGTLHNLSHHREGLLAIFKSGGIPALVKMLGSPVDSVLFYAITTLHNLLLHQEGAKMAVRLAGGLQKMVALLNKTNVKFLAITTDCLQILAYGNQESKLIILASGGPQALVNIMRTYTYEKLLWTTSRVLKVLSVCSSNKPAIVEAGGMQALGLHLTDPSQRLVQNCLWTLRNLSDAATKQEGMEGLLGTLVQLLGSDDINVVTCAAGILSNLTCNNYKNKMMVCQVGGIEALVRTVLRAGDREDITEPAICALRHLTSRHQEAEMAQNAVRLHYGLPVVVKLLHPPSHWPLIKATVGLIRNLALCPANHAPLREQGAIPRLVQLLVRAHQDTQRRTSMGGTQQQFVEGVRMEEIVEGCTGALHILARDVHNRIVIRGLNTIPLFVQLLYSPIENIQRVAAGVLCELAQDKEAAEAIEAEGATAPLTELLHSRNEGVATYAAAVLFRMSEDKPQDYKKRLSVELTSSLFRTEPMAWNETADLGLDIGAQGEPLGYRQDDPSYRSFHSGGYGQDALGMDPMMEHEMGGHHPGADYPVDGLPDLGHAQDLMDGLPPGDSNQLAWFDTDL

[2] = target: T2, beta-catenin/TCF4 engagement (Homo sapiens, UniProt P35222); assay: Nano-BRET target engagement assay (B-cat-Halo & TCF4-Luc in HEK293 cells); type: cell-based; details: read-out: NanoBRET Abs IC50
T2 construct: expressed in transfected cells; host or cells: HEK293
T2 sequence (P35222 1-781): T1 sequence (P35222 1-781)

[3] = fluorescence polarization; read-out: beta-Catenin FP IC50

| Structure (SMILES) | IC50 [1, 3] [nM] | IC50 ([2]; absolute IC50) [nM] | IC50 ([1]; read-out: beta-Catenin FP IC50; fluorescence polarization) [nM] | IC50 [2] [nM] |
| --- | --- | --- | --- | --- |
| CC(=O)N1CCC[C@]12CC=CCCCC1(CCCC=CCCCOC(=O)N3CC[C@@](C(=O)N[C@@H](Cc4ccccc4Cl)C(=O)N[C@@H](Cc4csc5ccccc45)C(=O)N[C@@H](CO)C(N)=O)(C3)NC(=O)[C@H](CC(C)C)NC(=O)[C@H](Cc3ccccc3)NC(=O)[C@H](C)NC(=O)[C@H](C)NC(=O)[C@H](Cc3ccccc3C(=O)O)NC(=O)[C@H](CC(=O)O)NC1=O)NC(=O)[C@H](CC(C)(C)C)NC(=O)[C@H](CC(=O)O)NC2=O (stereo partly drawn) [I-1663, Ac-PL3-Asp-Npg-B5-Asp-2COOHF-Ala-Ala-Phe-Leu-PyrS2-2C1F-BztA-Ser-NH2] | 67 | 8500 | – | – |
| CC(=O)N1CCC[C@]12CC=CCCCC1(CCCC=CCCCOC(=O)N3CC[C@@](C(=O)N[C@@H](Cc4ccsc4)C(=O)N[C@@H](Cc4csc5ccccc45)C(=O)N[C@@H](CCC(N)=O)C(N)=O)(C3)NC(=O)[C@H](CC(C)C)NC(=O)[C@@H](Cc3cccc(S(=O)(=O)F)c3)NC(=O)[C@H](C)NC(=O)[C@H](C)NC(=O)[C@H](CN(CC(=O)O)CC(F)(F)F)NC(=O)[C@H](CC(=O)O)NC1=O)NC(=O)[C@H](CC(C)(C)C)NC(=O)[C@H](CC(=O)O)NC2=O (stereo partly drawn) [I-2185, Ac-PL3-Asp-Npg-B5-Asp-TfeGA-Ala-Ala-3SO2F-Leu-PyrS2-3Thi-BztA-Gln-NH2] | – | – | 42 | 6100 |
| CC(=O)N1CCC[C@]12CC=CCCCC1(CCCC=CCCCOC(=O)N3CC[C@@](C(=O)N[C@@H](Cc4ccccc4Cl)C(=O)N[C@@H](Cc4csc5ccccc45)C(=O)N[C@@H](CCO)C(N)=O)(C3)NC(=O)[C@H](CO)NC(=O)[C@H](Cc3ccccc3)NC(=O)[C@H](C)NC(=O)[C@H](C)NC(=O)[C@H](CC(=O)O)NC(=O)[C@H](CC(=O)O)NC1=O)NC(=O)[C@H](CC1CCCCC1)NC(=O)[C@H](CC(=O)O)NC2=O (stereo partly drawn) [I-1137, Ac-PL3-Asp-Cha-B5-Asp-Asp-Ala-Ala-Phe-Ser-PyrS2-2C1F-BztA-Hse-NH2] | 8 | 12000 | – | – |
| CC(=O)N1CCC[C@]12CC=CCCCC1(CCCC=CCCCOC(=O)N3CC[C@@](C(=O)N[C@@H](Cc4ccsc4)C(=O)N[C@@H](Cc4csc5ccccc45)C(=O)N[C@@H](CC(N)=O)C(=O)N[C@@H](C)C(=O)NC(C)(C)C(=O)N[C@@H](C)C(=O)NC(C)(C)C(=O)N[C@@H](C)C(N)=O)(C3)NC(=O)[C@H](CC(C)C)NC(=O)[C@H](Cc3ccccc3)NC(=O)[C@H](C)NC(=O)[C@H](C)NC(=O)[C@H](Cc3cccc(C(=O)O)c3)NC(=O)[C@H](CC(=O)O)NC1=O)NC(=O)[C@H](CC(C)(C)C)NC(=O)[C@H](CC(=O)O)NC2=O (stereo partly drawn) [I-2272, Ac-PL3-Asp-Npg-B5-Asp-3COOHF-Ala-Ala-Phe-Leu-PyrS2-3Thi-BztA-Asn-Ala-Aib-Ala-Aib-Ala-NH2] | 43 | 3000 | – | – |
| CC(=O)N1CCC[C@]12CC=CCCCC1(CCCC=CCCCOC(=O)N3CC[C@@](C(=O)N[C@@H](Cc4ccccc4C(F)(F)F)C(=O)N[C@@H](Cc4cccc(Cl)c4)C(=O)N[C@@H](C)C(N)=O)(C3)NC(=O)[C@H](CC(C)C)NC(=O)[C@H](Cc3ccccc3)NC(=O)[C@H](C)NC(=O)[C@H](CCC(N)=O)NC(=O)[C@H](Cc3cccc(C(=O)O)c3)NC(=O)[C@H](CC(=O)O)NC1=O)NC(=O)[C@H](CC(C)(C)C)NC(=O)[C@H](CC(=O)O)NC2=O (stereo partly drawn) [I-2227, Ac-PL3-Asp-Npg-B5-Asp-3COOHF-Gln-Ala-Phe-Leu-PyrS2-2F3MeF-3C1F-Ala-NH2] | 47 | 6300 | – | – |
| CC(=O)N1CCC[C@]12CC=CCCCC1(CCCC=CCCCOC(=O)N3CC[C@@](C(=O)N[C@@H](Cc4ccsc4)C(=O)N[C@@H](Cc4ccc5ccccc5c4)C(=O)N[C@@H](CO)C(N)=O)(C3)NC(=O)[C@H](CC(C)C)NC(=O)[C@H](Cc3ccccc3)NC(=O)[C@H](C)NC(=O)[C@H](C)NC(=O)[C@H](CC(=O)O)NC(=O)[C@H](CC(=O)O)NC1=O)NC(=O)[C@H](CC(C)(C)C)NC(=O)[C@H](CC(=O)O)NC2=O (stereo partly drawn) [I-1239, Ac-PL3-Asp-Npg-B5-Asp-Asp-Ala-Ala-Phe-Leu-PyrS2-3Thi-2NapA-Ser-NH2] | 33 | 31800 | – | – |
| CC(=O)N1CCC[C@]12CC=CCCCC1(CCCC=CCCCCCC[C@@](C)(C(=O)N[C@@H](Cc3ccsc3)C(=O)N[C@@H](Cc3csc4ccccc34)C(=O)N[C@@H](CCC(N)=O)C(N)=O)NC(=O)[C@H](CC(N)=O)NC(=O)[C@H](Cc3ccccc3)NC(=O)[C@H](C)NC(=O)[C@H](C)NC(=O)[C@H](CN(CCC(F)(F)F)CC(=O)O)NC(=O)[C@H](CC(=O)O)NC1=O)NC(=O)[C@H](CC(C)(C)C)NC(=O)[C@H](CC(=O)O)NC2=O (stereo partly drawn) [I-1625, Ac-PL3-Asp-Npg-B5-Asp-[Tfp]GA-Ala-Ala-Phe-Asn-S8-3Thi-BztA-Gln-NH2] | 52.5 | 29300 | – | – |
| CC(=O)N1CCC[C@]12CC=CCCCC1(CCCC=CCCCOC(=O)N3CC[C@@](C(=O)N[C@@H](Cc4ccsc4)C(=O)N[C@@H](Cc4csc5ccccc45)C(=O)N[C@@H](CC(N)=O)C(=O)N[C@@H](C)C(=O)N[C@@H](CC(C)C)C(=O)N[C@@H](CC(C)C)C(N)=O)(C3)NC(=O)[C@H](CC(C)C)NC(=O)[C@H](Cc3ccccc3)NC(=O)[C@H](C)NC(=O)[C@H](C)NC(=O)[C@H](Cc3cccc(C(=O)O)c3)NC(=O)[C@H](CC(=O)O)NC1=O)NC(=O)[C@H](CC(C)(C)C)NC(=O)[C@H](CC(=O)O)NC2=O (stereo partly drawn) [I-2278, Ac-PL3-Asp-Npg-B5-Asp-3COOHF-Ala-Ala-Phe-Leu-PyrS2-3Thi-BztA-Asn-Ala-Leu-Leu-NH2] | 120 | 2800 | – | – |
| CC(=O)NCCCC[C@@H]1NC(=O)[C@H](Cc2ccccc2)NC(=O)[C@H](C)NC(=O)[C@H](C)NC(=O)[C@H](Cc2cccc(C(=O)O)c2)NC(=O)[C@H](CC(=O)O)NC(=O)C2(CCCC=CCCCOC(=O)N3CC[C@@](C(=O)N[C@@H](Cc4ccccc4C(F)(F)F)C(=O)N[C@@H](Cc4csc5ccccc45)C(=O)N[C@@H](CCC(=O)N(C)C)C(N)=O)(C3)NC1=O)CCCC=CC[C@]1(CCCN1C(C)=O)C(=O)N[C@@H](CC(=O)O)C(=O)N[C@@H](CC(C)(C)C)C(=O)N2 (stereo partly drawn) [I-2540, Ac-PL3-Asp-Npg-B5-Asp-3COOHF-Ala-Ala-Phe-AcLys-PyrS2-2F3MeF-BztA-Me2Gln-NH2] | 14 | 3500 | – | – |
| CC(=O)N1CCC[C@]12CC=CCCCCC1(CCCCC=CCCOC(=O)N3CC[C@@](C(=O)N[C@@H](Cc4ccccc4C(F)(F)F)C(=O)N[C@@H](Cc4csc5ccccc45)C(=O)N[C@@H](C)C(N)=O)(C3)NC(=O)[C@H](CC(C)C)NC(=O)[C@H](Cc3ccccc3)NC(=O)[C@H](C)NC(=O)[C@H](CCC(N)=O)NC(=O)[C@H](Cc3cccc(C(=O)O)c3)NC(=O)[C@H](CC(=O)O)NC1=O)NC(=O)[C@H](CC(C)(C)C)NC(=O)[C@H](CC(=O)O)NC2=O (stereo partly drawn) [I-2510, Ac-PL3-Asp-Npg-B6-Asp-3COOHF-Gln-Ala-Phe-Leu-PyrS1-2F3MeF-BztA-Ala-NH2] | 24 | 7800 | – | – |
| CCCCCCSSCCOC(=O)C[C@@H]1NC(=O)[C@H](CC(=O)O)NC(=O)C2(CCCC=CCCCOC(=O)N3CC[C@@](C(=O)N[C@@H](Cc4ccsc4)C(=O)N[C@@H](Cc4csc5ccccc45)C(=O)N[C@@H](CCC(N)=O)C(N)=O)(C3)NC(=O)[C@H](CC(C)C)NC(=O)[C@H](Cc3ccccc3)NC(=O)[C@H](C)NC(=O)[C@H](C)NC1=O)CCCC=CC[C@]1(CCCN1C(C)=O)C(=O)N[C@@H](CC(=O)O)C(=O)N[C@@H](CC(C)(C)C)C(=O)N2 (stereo partly drawn) [I-1962, Ac-PL3-Asp-Npg-B5-Asp-[EtSSHex]AspE-Ala-Ala-Phe-Leu-PyrS2-3Thi-BztA-Gln-NH2] | 1600 | – | – | > 20000 |
| CC(=O)N1CCC[C@]12CC=CCCCC1(CCCC=CCCCOC(=O)N3CC[C@@](C(=O)N[C@@H](Cc4ccccc4)C(=O)N[C@@H](Cc4csc5ccccc45)C(=O)N[C@@H](CCO)C(N)=O)(C3)NC(=O)[C@H](CC(N)=O)NC(=O)[C@H](Cc3ccccc3)NC(=O)[C@H](C)NC(=O)[C@H](CCC(N)=O)NC(=O)[C@H](CCC(N)=O)NC(=O)[C@H](CC(=O)O)NC1=O)NC(=O)[C@H](CC1CCCCC1)NC(=O)[C@H](CC(N)=O)NC2=O (stereo partly drawn) [I-2067, Ac-PL3-Asn-Cha-B5-Asp-Gln-Gln-Ala-Phe-Asn-PyrS2-Phe-BztA-Hse-NH2] | 180 | – | – | > 20000 |
| CC(=O)N1CCC[C@]12CC=CCCCC1(CCCC=CCCCOC(=O)N3CC[C@@](C(=O)N[C@@H](Cc4ccccc4C(F)(F)F)C(=O)N[C@@H](Cc4csc5ccccc45)C(=O)N[C@@H](CCC(N)=O)C(=O)N[C@@H](CC(C)C)C(=O)N[C@@H](Cc4ccc(O)cc4)C(N)=O)(C3)NC(=O)[C@H](CC(C)C)NC(=O)[C@H](Cc3ccccc3)NC(=O)[C@H](C)NC(=O)[C@H](C)NC(=O)[C@H](Cc3cccc(C(=O)O)c3)NC(=O)[C@H](CC(=O)O)NC1=O)NC(=O)[C@H](CC(C)(C)C)NC(=O)[C@H](CC(=O)O)NC2=O (stereo partly drawn) [I-2392, Ac-PL3-Asp-Npg-B5-Asp-3COOHF-Ala-Ala-Phe-Leu-PyrS2-2F3MeF-BztA-Gln-Leu-Tyr-NH2] | 461 | 8600 | – | – |
